“Also recorded” adds a separate entry of the source. Ends that are not written are not given here.
Assays:
[1] = biological target: T1, MDM2 H. sapiens (SWIB domain) (Homo sapiens, UniProt Q00987); assay: Stopped-flow binding kinetics (kon, koff; KD = koff/kon); details: 10°C; for koff: pre-formed complex 1 μM:1 μM displaced by 10–20 μM dansylated human p53TAD, pH 7.4, SD of two or three replicates; for kon: pH 7.4, MDM2 H. sapiens 0.5–2 μM mixed with 1–10 μM p53TAD, kobs vs concentration, pH 7.4, curve fitting error
T1 construct: The reconstructed MDM2 variants used in the present study correspond to residues 17–125 of human MDM2; N-terminal fusion: NusA-TEV-His6-PreScission (pSY10) or His6-GST-PreScission (pETM33); made in house; host or cells: Escherichia coli BL21 (DE3) pLys or BL21 (DE3)
T1 sequence (Q00987 17-125): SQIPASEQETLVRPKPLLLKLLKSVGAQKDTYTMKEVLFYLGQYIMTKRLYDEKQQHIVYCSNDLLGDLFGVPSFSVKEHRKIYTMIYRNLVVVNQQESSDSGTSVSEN

[2] = biological target: T2, MDM2 D. rerio (SWIB domain) (Danio rerio, UniProt O42354); assay: as above; details: for kon: MDM2 D. rerio 0.5–2 μM mixed with 1–10 μM peptide, curve fitting error; for kon / koff: pH 7.4; for koff: complex 1 μM:1 μM displaced by 10–20 μM dansylated human p53TAD, SD of two or three replicates
T2 construct: N-terminal fusion: NusA-TEV-His6-PreScission (pSY10) or His6-GST-PreScission (pETM33); made in house; host or cells: Escherichia coli BL21 (DE3) pLys or BL21 (DE3)
T2 sequence (O42354 19-102 limits assumed): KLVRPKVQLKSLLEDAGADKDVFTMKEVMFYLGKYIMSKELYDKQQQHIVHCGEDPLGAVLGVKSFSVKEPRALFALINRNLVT

[3] = biological target: MDM2 T. adhaerens (SWIB domain); assay: Fluorescence polarization displacement of FITC-labeled human p53TAD 15–26 (IC50 to KD/Ki); type: binding, Trichoplax adhaerens; details: FP displacement, FITC-labeled p53TAD H. sapiens 15–26 6 or 10 nM and MDM2 T. adhaerens 50 μM constant, dilution series of native p53TAD, room temperature, pH 7.4
Experimental: FP can detect weak affinities (K D values in the high μM range), although the accuracy is lower than for the other methods. In FP experiments we observed direct binding using a FITC‐labeled p53TAD peptide and used unlabeled peptides containing the binding motif to displace the labeled one. FP experiments were performed at room temperature using the same buffer as kinetic experiments. For saturation experiments the FITC labeled human peptide was held at a constant concentration of 6 or 10 nM and mixed with the 1:1 dilution series of different MDM2 proteins (the highest concentration of proteins were 89, 37, 50, 22, and 7.3 μM for T. adhaerens, M. trossulus, I. scapularis, L. camtschaticum and H. sapiens MDM2, respectively) in black, non‐binding surface, flat bottom 96‐well plates (Corning Life Sciences). The polarization was measured at excitation/emission wavelengths of 485/535 nm on a SpectraMax iD5 plate reader. […] The resulting displacement curve was fit to a sigmoidal dose‐response (variable slope) equation to obtain an IC50 value, which was in turn used to calculate K D values for the competing peptides as described previously(Nikolovska‐Coleska et al., [2004]) (Excel File 2 in Data S1). Errors were calculated as standard error of mean (SEM) of calculated K D values for the displacer peptides resulting from independent fit of IC50 values for the replicate measurements.
Supplementary Excel File 1. Sequences of constructs used in the experiments. The sequence and name for each interaction motif in p53TAD and MDM2 SWIB domain used in binding experiments in the study.
(§1) Supplementary Excel File 2. Calculation of Ki from IC50 values. IC50 values were determined as described in the materials section. The theory behind the conversion of IC50 values to Ki values (=KD) is described in Nikolovska-Coleska, et al., Development and optimization of a binding assay for the XIAP BIR3 domain using fluorescence polarization. […]
p53TAD. The posterior probability is shown for each amino acid for each position for the […]
Supplementary Text File 1. Fasta file for p53TAD. […]

[4] = biological target: T2, MDM2 D. rerio (SWIB domain); assay: as above; type: binding; details: FP displacement; low constant FITC-labeled p53TADHuman and MDM2 D. rerio, displaced by excess peptide; room temperature, pH 7.4; KD calculated from IC50; mean ± SEM
Experimental: FP can detect weak affinities (K D values in the high μM range), although the accuracy is lower than for the other methods. In FP experiments we observed direct binding using a FITC‐labeled p53TAD peptide and used unlabeled peptides containing the binding motif to displace the labeled one. FP experiments were performed at room temperature using the same buffer as kinetic experiments. […] The polarization was measured at excitation/emission wavelengths of 485/535 nm on a SpectraMax iD5 plate reader. […] Errors were calculated as standard error of mean (SEM) of calculated K D values for the displacer peptides resulting from independent fit of IC50 values for the replicate measurements. […]
as §1, with “Calculation of Ki from IC50 values.” left out

Row | kon [1] [M⁻¹ s⁻¹] | Substance | koff ([1]; MDM2 H. sapiens) [s⁻¹] | also measured
1 | 3.8e+07 ± 2e+06 | Ac-SQETFSDLWNML [p53TADReptiles/Mammals ^AltAll] | 0.36 ± 0.01 | –
2 | 2.73e+07 ± 700000 | Ac-SQESFSDLWNLL [p53TADFishes/Tetrapods ^AltAll] | 0.52 ± 0.04 | –
3 | – | Ac-DSQEFAELWEKN (N-terminus assumed) [p53TAD D. rerio ^14–26] | – | K D ([2]; MDM2 D. rerio, KD = koff/kon, stopped-flow, 10°C, 20 mM sodium phosphate pH 7.4, 150 mM NaCl, 1 mM TCEP, propagated error): absence of interaction; also recorded: non‐measurable affinity
4 | – | Ac-SQETFEYLWNTL [p53TAD M. trossulus] | – | K D ([1]; MDM2 H. sapiens, KD = koff/kon, Trp fluorescence ex 280 nm/em 330 ± 25 nm, 20 mM sodium phosphate pH 7.4, 150 mM NaCl, 1 mM TCEP, propagated error, 12-mers show non-native high affinity): high affinity
5 | 1.5e+07 ± 1e+06 | Ac-SQETFDFLWKSL [p53TADBilateria ^AltAll] | 2.6 ± 0.3 | –
6 | 2.9e+07 ± 2e+06 | Ac-SQDTFSDLWNQL [p53TAD1R ^AltAll] | 0.7 ± 0.04 | –
7 | 1.9e+07 ± 1e+06 | Ac-SQETFNHLWNTL [p53TADBilateria ^ML] | 11 ± 2 | –
8 | – | Ac-SQETFSDLWNML [p53TADFishes/Tetrapods ^ML] | – | kon ([2]; stopped-flow, 10°C): 2.46e+07 ± 800000 M⁻¹ s⁻¹; koff ([2]; MDM2 D. rerio, 10°C): 2.3 ± 0.2 s⁻¹
9 | 4.2e+07 ± 2e+06 | Ac-SQETFSDLWNLL [p53TADReptiles/Mammals ^ML] | 0.32 ± 0.04 | –
10 | – | GPMGMSDEPTLSQLSFSQELSSSWQLMIDEITQGKFNTNEDEGTAIYSYSEQNPDDRYLMRPNEPQYISAGYPDGQVGQLPREFAVNQIPSPRTFSDNVSSSADKAREAYYGQAVNGVSAETSPPLKRDP [full-length p53TAD, residues 1–126 of T. adhaerens p53] | – | K D [3]: did not show binding; K D ([3]; listed as full‐length p53TAD): failed to displace; K D ([3]; listed as full‐length p53TAD from T. adhaerens): no binding
11 | – | Ac-EGPTFEHLWSTL [p73TAD D. rerio] | – | Kd [2]: 0.12 ± 0.01 µM; kon ([2]; stopped-flow, 10°C): 3.2e+07 ± 1e+06 M⁻¹ s⁻¹; koff ([2]; MDM2 D. rerio, 10°C): 3.7 ± 0.06 s⁻¹
12 | – | Ac-GQDVLNQLLEML [p63TAD D. rerio] | – | Kd [4]: 130 ± 2 µM
13 | 1.67e+07 ± 900000 | Ac-SQETFNHLWNML [p53TAD1R ^ML] | 1.37 ± 0.06 | –

Source: PMC10303687 (Protein Science : A Publication of the Protein Society, 2023)
